Source: patent US10175256B2, “Compositions and methods utilizing lysophosphatidylcholine scaffolds” (National University Of Singapore, priority 2013, dated 2019)

Tests used:
mouse Mfsd2a [1] = molecular target: T1, mouse Mfsd2a (Mus musculus, UniProt Q9DA75); assay: In vitro transport (uptake) of radiolabeled and fluorescent LPCs in HEK293 cells overexpressing Mfsd2a; assay type: cell-based
T1 construct: expressed in transfected cells; host or cells: HEK293
T1 sequence (Q9DA75 1-534): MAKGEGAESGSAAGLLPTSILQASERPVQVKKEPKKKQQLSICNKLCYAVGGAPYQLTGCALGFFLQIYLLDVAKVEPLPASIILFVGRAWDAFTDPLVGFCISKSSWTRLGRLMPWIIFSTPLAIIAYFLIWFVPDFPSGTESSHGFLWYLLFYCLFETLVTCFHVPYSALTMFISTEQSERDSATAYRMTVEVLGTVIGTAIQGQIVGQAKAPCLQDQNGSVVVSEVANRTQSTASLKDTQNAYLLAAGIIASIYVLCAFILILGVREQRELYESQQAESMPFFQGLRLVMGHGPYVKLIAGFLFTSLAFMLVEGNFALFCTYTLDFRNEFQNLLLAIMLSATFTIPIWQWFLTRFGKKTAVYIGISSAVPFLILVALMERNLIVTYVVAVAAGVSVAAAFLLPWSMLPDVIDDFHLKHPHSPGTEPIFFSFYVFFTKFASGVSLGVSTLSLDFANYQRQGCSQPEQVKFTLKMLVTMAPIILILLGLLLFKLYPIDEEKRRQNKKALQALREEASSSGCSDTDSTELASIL
Procedure: Uptake assays of radiolabeled LPCs or fluorescent LPCs were tested using HEK293 cells overexpressing Mfsd2a and mutants constructs. Briefly, HEK293 cells at 90-95% confluency were transfected using LIPOFECTAMINE 2000 (Invitrogen) with pcDNA3.1Mfsd2a (WT), pcDNA3.1Mfsd2aD92A (D92A), pcDNA3.1Mfsd2aD96A (D96A), or pcDNA3.1 (mock) plasmids. Uptake assays were performed after 24 hours of transfections. Prior to ligand incubation, HEK293 transfected cells were washed with serum-free DMEM before assays. For concentration and time dependent assays, radiolabeled LPCs were diluted in pre-warmed DMEM media. For sodium dependent assay, radiolabeled LPCs were diluted in transport buffer (5 mM KCl, 10 mM Hepes, pH 7.4) with 150 mM NaCl or 150 mM choline chloride. For sodium concentration dependent assays, any reductions in the concentration of NaCl were replaced by choline chloride in order to maintain a constant cation molarity of 150 mM. All assays were performed in 12 well-plates with triplicates and at 37° C.

Mfsd2a = molecular target: T2, Mfsd2a (Mus musculus, UniProt Q9DA75); assay: In vivo transport of radiolabeled, fluorescent LPCs and unesterified DHA in Mfsd2a KO and wild-type mice; parameters: from tissue; host or cells: living mice; brain (blood-brain barrier endothelium), liver, heart; fetal brain; details: i.v. injection, 2 hrs post-injection, radiolabel
T2 sequence (Q9DA75 1-534): T1 sequence (Q9DA75 1-534)
Procedure: Male and female mice of age of 6-8 weeks were IV injected with 75 μl of 20 mM radiolabeled LPC-[…], 100 μl of 10 mM LPC-[^14C]DHA/BSA complex or 82 μl of 12.2 mM [^14C]DHA/BSA complex in a total volume of 150 μl of phosphate-buffered saline. At 2 hours post injection, mice were anesthetized and perfused for 5 mins with PBS containing 0.5% BSA in order to remove blood and lipid tracer bound to the brain vasculature. Tissues were harvested for lipid extraction. For lipid extraction, tissues were weighed and similar amounts of tissues were homogenized in chloroform/methanol. Lipids from the organic phase were mixed with scintillant and scintillation counted. Similar experiments were also performed with an injection of 300 μg NBD-LPC/BSA or 300 μg TopFluor-LPC/BSA complex per mouse. In this experiment, mice were perfused for 5 mins with PBS followed 15 mins perfusion with 4% paraformaldehyde (PFA) for tissue fixation. Brain sections of WT and KO with a thickness of 40 μm were prepared and scanned using green fluorescence mode in Typhoon FLA 9000 scanner (Agilent). NBD-LPC accumulation was expressed as fluorescence of each section per its area. Dietary DHA transport from mother to fetus was also measured using [^14C]DHA/BSA complex. Pregnant females at e18.5 was gavaged with bolus of [^14C]DHA/BSA complex (200 μl of 10 mM [^14C]DHA/BSA/mouse). Brain of fetuses were collected 20 hours post-gavage and weighed. Lipid extraction and radioactivity were performed as described above.

mouse Mfsd2a [2] = molecular target: T1, mouse Mfsd2a; assay: TLC analysis of phospholipids (bio-incorporation of LPC into PC); assay type: cell-based; details: TLC
Procedure: HEK293 cells overexpressing with pcDNA3.1Mfsd2a (WT), pcDNA3.1Mfsd2aD92A (D92A), pcDNA3.1Mfsd2aD96A, or pcDNA3.1 (mock) plasmids or human Mfsd2a (in Sport6 plasmid) were washed once with serum-free DMEM medium before incubation with 50 μM radiolabeled LPC [^14C]oleate, LPC [^14C]DHA or with 50 μM TopFluor-LPC and NBD-LPC. Lipids were extracted twice with HIP buffer for 30 mins. Lipids were dried with nitrogen stream and reconstituted in chloroform and spotted on TLC plates (Milipore). Solvent for phospholipid separation was chloroform/methanol/ammonia solution (25%) (50:25:6, per volume). TLC plates of radiolabeled phospholipids were dried for 30 mins and exposed overnight to Phosphorscreens and scanned with Typhoon FLA 9000 scanner (Agilent). TLC plates of fluorescent phospholipids were scanned with Typhoon FLA 9000 scanner and quantified using Imagequant software.

[3] = Blood LPC [14C]-oleate analysis; assay type: in vivo, mice; details: intravenous, 2 hrs post-injection
Procedure: Mfsd2a KO and WT mice were injected intravenously with 100 μM radioactive labeled LPC [^14C]-oleate. 10 μl of blood samples were collected after 2 min (initial dose) and after 2 hr from tail vein, and radioactivity was quantified by scintillation counting. The amount of plasma LPC [^14C]-oleate in the KO mice was expressed as ratio to the WT at each time point.

CCCCCCCCC=CCCCCCCCC(=O)OC[C@@H](O)COP(=O)([O-])OCC[N+](C)(C)C [LPC-[^14C]oleate, 1-oleoyl 2-lysophosphocholine]
comparison of Mfsd2a-mediated uptake (capacity to transport) (mouse Mfsd2a [1]; HEK293 cells expressing Mfsd2a): highest capacity to transport LPC-DHA, followed by LPC-oleate, and LPC-palmitate
uptake of radiolabeled LPC by cells expressing Mfsd2a relative to control cells (mouse Mfsd2a [1]; HEK293 cells, wild-type Mfsd2a vs mock, LPC/BSA, 30 mins): concentration-dependent uptake
brain uptake in KO mice relative to wild-type (Mfsd2a): markedly reduced
net uptake of LPC ligand (PC mass) (mouse Mfsd2a [2]; 100 μM unlabeled LPC-oleate, 1 hour): Increased net uptake
conversion of transported LPCs into PCs (mouse Mfsd2a [2]; HEK293 cells expressing Mfsd2a, radiolabeled LPC): rapid conversion of transported LPCs into PCs
plasma level of injected tracer in KO mice relative to WT [3]: increased levels
